Test results from patent US6573218B1, “Fused-benzene derivatives useful as herbicides” (Ishihara Sangyo Kaisha, Ltd., priority 1998, dated 2003).

Columns and labels:
Type in all cases: in vivo
[1] = tested on: field corn (Zea mays L., var. Dekalb 527, CORN); test: Post-emerge greenhouse crop damage test
Source text: (§1) A standard greenhouse herbicide activity screening system was used to evaluate the herbicidal efficacy and crop safety of these test compounds. Seven broadleaf weed species including redroot pigweed (Amaranthus retroflexus, AMARE), velvetleaf (Abutilon theophrasti, ABUTH), sicklepod (Cassia obtusifolia, CASOB), ivyleaf morningglory (Ipomoea hederacea, IPOHE), lambsquarters (Chenopodium album, CHEAL), common ragweed (Ambrosia artemisiifolia L., AMBEL), and cocklebur (Xanthium strumarium, XANST) were used as test species. Four grass weed species including green foxtail (Setaria viridis, SETVI), barnyardgrass (Echinochloa crus-galli, ECHCG), johnsongrass (Sorghum halepense, SORHA), and large crabgrass (Digitaria sanguinalis, DIGSA) were also used. In addition, three crop species, field corn (Zea mays L., var. Dekalb 527, CORN), soybean (Glycine max L., var. Pella 86, SOY), and upland rice (Ory0a sp., var.Tebonnet, RICE) were included.
(§2) All plants were grown in 10 cm square plastic pots which were filled with a sandy loam soil mix. For pre-emerge tests, seeds were planted one day prior to application of the test compounds. For post-emerge tests, seeds were planted 8-21 days prior to the test to allow emergence and good foliage development prior to application of the test substances. At the time of the post-emerge application, plants of all species were usually at the 2-3 leaf stage of development.
(§3) All test compounds were dissolved in acetone and applied to the test units in a volume of 187 l/ha. Test materials were applied at rates ranging from 15 g ai/ha to 1000 g ai/ha using a track sprayer equipped with a TJ8001E even flow flat fan spray nozzle. Plants were arranged on a shelf so that the top of the canopy (post-emerge) or top of the soil surface (pre-emerge) was 40-45 cm below the nozzle. Pressurized air was used to force the test solution through the nozzle as it was mechanically advanced over the top of all test plants/pots. This application simulates a typical commercial field herbicide application.
(§4) In the post-emerge test, a commercial non-ionic surfactant was also included (0.25% v/v) to enhance wetting of the leaf surfaces of target plants. Immediately after application, test units of the pre-emerge applications were watered at the soil surface to incorporate the test materials.
(§5) At 14 days after application of the test materials, phytotoxicity ratings were recorded. A rating scale of 0-100 was used as previously described in Research Methods in Weed Science, 2nd edition, B. Truelove, Ed., Southern Weed Science Society, Auburn University, Auburn, Ala., 1977. Briefly, “0” corresponds to no damage and “100” corresponds to complete death of all plants in the test unit. This scale was used both to determine efficacy against weed species and damage to crop species. Herbicide activity data for various compounds of this invention, which are shown by compound No. in Tables 1-14, are shown in Tables 16 and 17.

[2] = tested on: soybean (Glycine max L., var. Pella 86, SOY); test: Post-emerge greenhouse crop damage test
Source text: as §1, §2, §3, §4, §5

[3] = tested on: upland rice (Ory0a sp., var.Tebonnet, RICE); test: Post-emerge greenhouse crop damage test
Source text: as §1, §2, §3, §4, §5

[4] = tested on: ivyleaf morningglory (Ipomoea hederacea, IPOHE); test: Post-emerge greenhouse herbicide test; conditions: 14 days after application
Source text: as §1, §2, §3, §4, §5

[5] = tested on: redroot pigweed (Amaranthus retroflexus, AMARE); test: Post-emerge greenhouse herbicide test; conditions: 14 days after application
Source text: as §1, §2, §3, §4, §5

[6] = tested on: large crabgrass (Digitaria sanguinalis, DIGSA); test: Post-emerge greenhouse herbicide test; conditions: 14 days after application
Source text: as §1, §2, §3, §4, §5

[7] = tested on: sicklepod (Cassia obtusifolia, CASOB); test: Post-emerge greenhouse herbicide test; conditions: 14 days after application
Source text: as §1, §2, §3, §4, §5

[8] = tested on: barnyardgrass (Echinochloa crus-galli, ECHCG); test: Post-emerge greenhouse herbicide test; conditions: 14 days after application
Source text: as §1, §2, §3, §4, §5

[9] = tested on: green foxtail (Setaria viridis, SETVI); test: Post-emerge greenhouse herbicide test; conditions: 14 days after application
Source text: as §1, §2, §3, §4, §5

[10] = tested on: lambsquarters (Chenopodium album, CHEAL); test: Post-emerge greenhouse herbicide test; conditions: 14 days after application
Source text: as §1, §2, §3, §4, §5

[11] = tested on: velvetleaf (Abutilon theophrasti, ABUTH); test: Post-emerge greenhouse herbicide test; conditions: 14 days after application
Source text: as §1, §2, §3, §4, §5

[12] = tested on: ivyleaf morningglory (Ipomoea hederacea, IPOHE); test: Pre-emerge greenhouse herbicide test; conditions: 14 days after application, scale 0-100 (0 no damage, 100 complete death)
Source text: as §1, §2, §3, §4, §5

[13] = tested on: johnsongrass (Sorghum halepense, SORHA); test: Pre-emerge greenhouse herbicide test; conditions: 250 g ai/ha, 14 days after application, scale 0-100 (0 no damage, 100 complete death)
Source text: as §1, §2, §3, §4, §5

[14] = tested on: redroot pigweed (Amaranthus retroflexus, AMARE); test: Pre-emerge greenhouse herbicide test; conditions: 14 days after application, scale 0-100 (0 no damage, 100 complete death)
Source text: as §1, §2, §3, §4, §5

[15] = tested on: large crabgrass (Digitaria sanguinalis, DIGSA); test: Pre-emerge greenhouse herbicide test; conditions: 14 days after application, scale 0-100 (0 no damage, 100 complete death)
Source text: as §1, §2, §3, §4, §5

[16] = tested on: sicklepod (Cassia obtusifolia, CASOB); test: Pre-emerge greenhouse herbicide test; conditions: 14 days after application, scale 0-100 (0 no damage, 100 complete death)
Source text: as §1, §2, §3, §4, §5

[17] = tested on: barnyardgrass (Echinochloa crus-galli, ECHCG); test: Pre-emerge greenhouse herbicide test; conditions: 14 days after application, scale 0-100 (0 no damage, 100 complete death)
Source text: as §1, §2, §3, §4, §5

[18] = tested on: green foxtail (Setaria viridis, SETVI); test: Pre-emerge greenhouse herbicide test; conditions: 14 days after application, scale 0-100 (0 no damage, 100 complete death)
Source text: as §1, §2, §3, §4, §5

[19] = tested on: lambsquarters (Chenopodium album, CHEAL); test: Pre-emerge greenhouse herbicide test; conditions: 14 days after application, scale 0-100 (0 no damage, 100 complete death)
Source text: as §1, §2, §3, §4, §5

[20] = tested on: velvetleaf (Abutilon theophrasti, ABUTH); test: Pre-emerge greenhouse herbicide test; conditions: 14 days after application, scale 0-100 (0 no damage, 100 complete death)
Source text: as §1, §2, §3, §4, §5

[21] = tested on: field corn (Zea mays L., var. Dekalb 527, CORN); test: Pre-emerge greenhouse crop damage test
Source text: as §1, §2, §3, §4, §5

[22] = tested on: soybean (Glycine max L., var. Pella 86, SOY); test: Pre-emerge greenhouse crop damage test
Source text: as §1, §2, §3, §4, §5

[23] = tested on: upland rice (Ory0a sp., var.Tebonnet, RICE); test: Pre-emerge greenhouse crop damage test
Source text: as §1, §2, §3, §4, §5

[24] = 250 g ai/ha, post-emerge, 14 days after application
[25] = pre-emerge, 250 g ai/ha, 14 days after application, scale 0-100 (0 no damage, 100 complete death)
[26] = var. Dekalb 527, field corn (Zea mays L.), in vivo, 14 days
[27] = var. Pella 86, soybean (Glycine max L.), in vivo, 14 days
[28] = var. Tebonnet, upland rice (Ory0a sp.), in vivo, 14 days

Nn1c(C(F)(F)F)cc(=O)n(-c2c(F)cc(Cl)c3c2NC(=O)CO3)c1=O [Compound 4-2]
Post-emerge crop damage CORN (phytotoxicity rating 0-100) [1, 24]: 90 | Post-emerge crop damage SOY (phytotoxicity rating 0-100) [2, 24]: 100 | Post-emerge crop damage RICE (phytotoxicity rating 0-100) [3, 24]: 90 | Post-emerge Herbicidal Activity IPOHE (phytotoxicity rating 0-100) ([4]; 250 g ai/ha): 100 | Post-emerge Herbicidal Activity AMARE (phytotoxicity rating 0-100) ([5]; 250 g ai/ha): 100 | Post-emerge Herbicidal Activity DIGSA (phytotoxicity rating 0-100) ([6]; 250 g ai/ha): 20 | Post-emerge Herbicidal Activity CASOB (phytotoxicity rating 0-100) ([7]; 250 g ai/ha): 90 | Post-emerge Herbicidal Activity ECHCG (phytotoxicity rating 0-100) ([8]; 250 g ai/ha): 60 | Post-emerge Herbicidal Activity SETVI (phytotoxicity rating 0-100) ([9]; 250 g ai/ha): 40 | Post-emerge Herbicidal Activity CHEAL (phytotoxicity rating 0-100) ([10]; 250 g ai/ha): 100 | Post-emerge Herbicidal Activity ABUTH (phytotoxicity rating 0-100) ([11]; 250 g ai/ha): 100 | Pre-emerge Herbicidal Activity IPOHE (phytotoxicity rating) ([12]; 250 g ai/ha): 100 | Pre-emerge Herbicidal Activity SORHA (phytotoxicity rating) [13]: 65 | Pre-emerge Herbicidal Activity AMARE (phytotoxicity rating) ([14]; 250 g ai/ha): 100 | Pre-emerge Herbicidal Activity DIGSA (phytotoxicity rating) ([15]; 250 g ai/ha): 70 | Pre-emerge Herbicidal Activity CASOB (phytotoxicity rating) ([16]; 250 g ai/ha): 100 | Pre-emerge Herbicidal Activity ECHCG (phytotoxicity rating) ([17]; 250 g ai/ha): 80 | Pre-emerge Herbicidal Activity SETVI (phytotoxicity rating) ([18]; 250 g ai/ha): 80 | Pre-emerge Herbicidal Activity CHEAL (phytotoxicity rating) ([19]; 250 g ai/ha): 100 | Pre-emerge Herbicidal Activity ABUTH (phytotoxicity rating) ([20]; 250 g ai/ha): 100 | Pre-emerge Herbicidal Activity CORN (crop damage rating) [21, 25]: 100 | Pre-emerge Herbicidal Activity SOY (crop damage rating) [22, 25]: 95 | Pre-emerge Herbicidal Activity RICE (crop damage rating) ([23]; in vivo): 90

Cn1c(C(F)(F)F)cc(=O)n(-c2ccc(Cl)c3ccccc23)c1=O [Compound 5-1, 3-(4-Chloronaphthalen-1-yl)-1-methyl-6-trifluoromethyl-2,4(1H,3H)-pyrimidindione]
Post-emerge crop damage CORN (phytotoxicity rating 0-100) [1, 26]: 0 | Post-emerge crop damage SOY (phytotoxicity rating 0-100) [2, 27]: 0 | Post-emerge crop damage RICE (phytotoxicity rating 0-100) [3, 28]: 0 | Post-emerge Herbicidal Activity IPOHE (phytotoxicity rating 0-100) ([4]; 500 g ai/ha): 60 | Post-emerge Herbicidal Activity AMARE (phytotoxicity rating 0-100) ([5]; 500 g ai/ha): 100 | Post-emerge Herbicidal Activity DIGSA (phytotoxicity rating 0-100) ([6]; 500 g ai/ha): 60 | Post-emerge Herbicidal Activity CASOB (phytotoxicity rating 0-100) ([7]; 500 g ai/ha): 60 | Post-emerge Herbicidal Activity ECHCG (phytotoxicity rating 0-100) ([8]; 500 g ai/ha): 70 | Post-emerge Herbicidal Activity SETVI (phytotoxicity rating 0-100) ([9]; 500 g ai/ha): 100 | Post-emerge Herbicidal Activity CHEAL (phytotoxicity rating 0-100) ([10]; 500 g ai/ha): 100 | Post-emerge Herbicidal Activity ABUTH (phytotoxicity rating 0-100) ([11]; 500 g ai/ha): 100 | Pre-emerge Herbicidal Activity IPOHE (phytotoxicity rating) ([12]; 500 g ai/ha): 60 | Pre-emerge Herbicidal Activity AMARE (phytotoxicity rating) ([14]; 500 g ai/ha): 100 | Pre-emerge Herbicidal Activity DIGSA (phytotoxicity rating) ([15]; 500 g ai/ha): 98 | Pre-emerge Herbicidal Activity CASOB (phytotoxicity rating) ([16]; 500 g ai/ha): 60 | Pre-emerge Herbicidal Activity ECHCG (phytotoxicity rating) ([17]; 500 g ai/ha): 60 | Pre-emerge Herbicidal Activity SETVI (phytotoxicity rating) ([18]; 500 g ai/ha): 100 | Pre-emerge Herbicidal Activity CHEAL (phytotoxicity rating) ([19]; 500 g ai/ha): 100 | Pre-emerge Herbicidal Activity ABUTH (phytotoxicity rating) ([20]; 500 g ai/ha): 100 | Pre-emerge Herbicidal Activity CORN (crop damage rating) [21, 26]: 70 | Pre-emerge Herbicidal Activity SOY (crop damage rating) [22, 27]: 70 | Pre-emerge Herbicidal Activity RICE (crop damage rating) [23, 28]: 70

CCc1nc2c(N3C(=O)C4CCCCN4C3=O)c(F)cc(Cl)c2o1 (centres unmarked) [Compound 7-9]
Pre-emerge Herbicidal Activity IPOHE (phytotoxicity rating) ([12]; 250 g ai/ha): 20 | Pre-emerge Herbicidal Activity AMARE (phytotoxicity rating) ([14]; 250 g ai/ha): 100 | Pre-emerge Herbicidal Activity DIGSA (phytotoxicity rating) ([15]; 250 g ai/ha): 30 | Pre-emerge Herbicidal Activity CASOB (phytotoxicity rating) ([16]; 250 g ai/ha): 10 | Pre-emerge Herbicidal Activity ECHCG (phytotoxicity rating) ([17]; 250 g ai/ha): 10 | Pre-emerge Herbicidal Activity SETVI (phytotoxicity rating) ([18]; 250 g ai/ha): 40 | Pre-emerge Herbicidal Activity CHEAL (phytotoxicity rating) ([19]; 250 g ai/ha): 100 | Pre-emerge Herbicidal Activity ABUTH (phytotoxicity rating) ([20]; 250 g ai/ha): 50 | Pre-emerge Herbicidal Activity CORN (crop damage rating) [21, 25]: 0 | Pre-emerge Herbicidal Activity SOY (crop damage rating) [22, 25]: 15 | Pre-emerge Herbicidal Activity RICE (crop damage rating) [23, 25]: 10
